Measured values: ChEMBL document CHEMBL1201862, “PubChem BioAssay data set” (2004)
Active and inactive are the calls of the source.

What was measured:
BJ [1] = test: BJ-TERT-LT-ST fibroblast viability loss – cell-based, RAS-independent, luminescence, dose response (AID 1935); type: functional; details: Homo sapiens;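 also: BJ fibroblasts immortalized with TERT plus LT and ST oncogenes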
[2] = DRD fibroblast viability loss – cell-based, non-viral oncogenic, luminescence, dose response (AID 1934); type: functional; details: Homo sapiens
BJ [3] = test: BJ-TERT fibroblast viability loss – cell-based, RAS-independent, luminescence, dose response (AID 1933); type: functional; details: Homo sapiens
BJ [4] = test: cells; type: functional, cell-based; details: Homo sapiens
[5] = blockers of HIV-1 envelope-mediated cell-cell fusion – cherry-pick, dose response (AID 652057); type: functional, cell-based
[6] = HIV-1 AD8 envelope cell-cell fusion blockers – cherry-pick, dose response (AID 652062); type: functional, cell-based;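 also: luciferase signal from cell-cell fusion driven by HIV-1 clade B AD8 Env; potency is for inhibitors of fusion seen as a drop in luminescence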
[7] = blockers of HIV-1 ZM109 envelope-driven cell-cell fusion – HeLa effector, CEM target cells, luciferase, cherry-pick, dose response (AID 652058); type: functional, cell-based;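 also: luciferase signal from HIV-1 Env mediated cell-cell fusion of effector and target cells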
Cytochrome P450 3A4 = Cytochrome P450 3A4 (Homo sapiens, UniProt P08684); details: Potency;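 also: confirmatory qHTS run detecting inhibitors and substrates of CYP3A4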
Sequence of Cytochrome P450 3A4 (P08684 whole entry): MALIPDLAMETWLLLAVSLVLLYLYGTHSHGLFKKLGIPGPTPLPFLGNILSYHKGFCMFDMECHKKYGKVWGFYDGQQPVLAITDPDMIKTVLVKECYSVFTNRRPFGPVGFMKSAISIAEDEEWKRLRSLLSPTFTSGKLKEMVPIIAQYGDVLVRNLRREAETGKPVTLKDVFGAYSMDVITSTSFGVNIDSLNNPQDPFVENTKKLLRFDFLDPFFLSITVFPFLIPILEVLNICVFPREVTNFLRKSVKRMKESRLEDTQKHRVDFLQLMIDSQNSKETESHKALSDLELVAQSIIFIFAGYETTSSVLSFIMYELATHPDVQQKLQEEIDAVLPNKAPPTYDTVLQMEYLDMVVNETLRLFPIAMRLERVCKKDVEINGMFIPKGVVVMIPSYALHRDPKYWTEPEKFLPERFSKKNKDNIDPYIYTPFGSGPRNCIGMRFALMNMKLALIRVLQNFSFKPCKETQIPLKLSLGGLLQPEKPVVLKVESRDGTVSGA

Cytochrome P450 2C19 = Cytochrome P450 2C19 (Homo sapiens, UniProt P33261); test: Cytochrome panel assay with activity outcomes. Panel member name: p450-cyp2c19 Compounds with AC50 equal or less than 10 uM are considered active; type: functional; details: read-out: AC50
Sequence of Cytochrome P450 2C19 (P33261 whole entry): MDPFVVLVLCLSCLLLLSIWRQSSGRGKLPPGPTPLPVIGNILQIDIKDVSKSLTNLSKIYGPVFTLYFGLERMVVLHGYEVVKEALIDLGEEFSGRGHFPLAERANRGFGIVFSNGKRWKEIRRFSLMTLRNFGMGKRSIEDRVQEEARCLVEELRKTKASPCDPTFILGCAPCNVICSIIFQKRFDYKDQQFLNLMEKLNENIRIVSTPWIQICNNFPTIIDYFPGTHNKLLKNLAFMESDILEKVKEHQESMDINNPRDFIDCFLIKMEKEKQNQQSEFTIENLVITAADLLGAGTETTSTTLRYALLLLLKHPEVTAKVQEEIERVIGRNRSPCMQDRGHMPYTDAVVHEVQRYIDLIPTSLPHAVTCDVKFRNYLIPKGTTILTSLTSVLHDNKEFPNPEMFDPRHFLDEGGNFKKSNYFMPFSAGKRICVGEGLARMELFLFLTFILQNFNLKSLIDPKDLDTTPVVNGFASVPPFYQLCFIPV

Cytochrome P450 1A2 = molecular target: T1, Cytochrome P450 1A2 (Homo sapiens, UniProt P05177);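 also: PubChem cytochrome P450 panel assay, CYP1A2 panel member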
T1 sequence (P05177 whole entry): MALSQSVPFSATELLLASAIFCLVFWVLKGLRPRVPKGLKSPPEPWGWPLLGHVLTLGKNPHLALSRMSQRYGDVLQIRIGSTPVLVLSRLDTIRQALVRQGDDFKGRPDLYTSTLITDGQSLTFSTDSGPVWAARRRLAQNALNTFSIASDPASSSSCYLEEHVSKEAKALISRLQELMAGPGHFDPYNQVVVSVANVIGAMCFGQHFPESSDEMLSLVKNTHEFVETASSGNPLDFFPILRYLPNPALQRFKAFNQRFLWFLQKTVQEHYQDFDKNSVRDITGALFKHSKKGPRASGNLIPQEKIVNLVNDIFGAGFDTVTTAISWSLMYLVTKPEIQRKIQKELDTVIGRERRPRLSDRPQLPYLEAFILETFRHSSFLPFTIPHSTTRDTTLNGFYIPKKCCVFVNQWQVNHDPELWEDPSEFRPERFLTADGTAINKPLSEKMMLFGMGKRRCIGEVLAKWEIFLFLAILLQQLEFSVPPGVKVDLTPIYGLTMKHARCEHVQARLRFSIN

Cytochrome P450 2C9 = Cytochrome P450 2C9 (Homo sapiens, UniProt P11712)
Sequence of Cytochrome P450 2C9 (P11712 whole entry): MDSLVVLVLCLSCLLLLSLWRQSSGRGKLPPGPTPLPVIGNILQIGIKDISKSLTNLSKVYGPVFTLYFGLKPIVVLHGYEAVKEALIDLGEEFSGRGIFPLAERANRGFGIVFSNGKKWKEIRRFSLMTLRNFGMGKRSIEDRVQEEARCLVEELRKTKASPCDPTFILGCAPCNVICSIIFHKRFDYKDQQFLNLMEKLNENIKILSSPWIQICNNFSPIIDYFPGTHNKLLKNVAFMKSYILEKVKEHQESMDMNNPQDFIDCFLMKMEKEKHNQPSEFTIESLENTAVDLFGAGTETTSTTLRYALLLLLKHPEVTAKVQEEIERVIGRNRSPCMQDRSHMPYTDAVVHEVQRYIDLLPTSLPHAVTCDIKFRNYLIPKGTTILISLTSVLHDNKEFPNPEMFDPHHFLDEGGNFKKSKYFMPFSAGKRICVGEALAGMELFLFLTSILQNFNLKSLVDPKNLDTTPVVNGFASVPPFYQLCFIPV

[8] = intracellular Trypanosoma cruzi inhibitors in host cells – cell-based, plate reader, cherry-pick samples, set 3, dose response (AID 651818); type: functional;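 also: compounds incubated with infected cells for about four days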
[9] = toxicity toward HepG2 liver cells – cell-based, plate reader, cherry-pick, antagonist series, cytotoxicity control, dose response (AID 743416); type: functional
[10] = blockade of melanocortin 4 receptor signaling – cell-based, plate reader, cherry pick, counter-screen for LGR2 antagonist project, dose response (AID 743444); type: functional;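 also: transfected HEK 293 cells stimulated with alpha-MSH peptide; potency of inhibitors of the alpha-MSH evoked signal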
[11] = blockers of bursicon-stimulated LGR2 cAMP reporter – cell-based, HEK293, CRE-luciferase reporter, cherry pick, set 2, dose response (AID 743343); type: functional;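 also: transfected cells were stimulated with diluted bursicon conditioned medium after compound addition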
[12] = viability loss in HEK293 cells – cell-based, plate reader, cherry-picked samples, cytotoxicity control, dose response (AID 743446); type: functional
[13] = A549 cell cytotoxicity, dose response, cytotoxicity control, plate reader, cherry-pick, antagonist series (AID 743412); type: functional, cell-based
Leucine aminopeptidase = molecular target: T2, Leucine aminopeptidase (Plasmodium falciparum 3D7, UniProt Q8IL11); test: P. falciparum M17LAP inhibitors, primary screen, biochemical, fluorogenic H-Leu-NHMec substrate, 1536-well (AID 1619); type: functional
T2 sequence (Q8IL11 whole entry): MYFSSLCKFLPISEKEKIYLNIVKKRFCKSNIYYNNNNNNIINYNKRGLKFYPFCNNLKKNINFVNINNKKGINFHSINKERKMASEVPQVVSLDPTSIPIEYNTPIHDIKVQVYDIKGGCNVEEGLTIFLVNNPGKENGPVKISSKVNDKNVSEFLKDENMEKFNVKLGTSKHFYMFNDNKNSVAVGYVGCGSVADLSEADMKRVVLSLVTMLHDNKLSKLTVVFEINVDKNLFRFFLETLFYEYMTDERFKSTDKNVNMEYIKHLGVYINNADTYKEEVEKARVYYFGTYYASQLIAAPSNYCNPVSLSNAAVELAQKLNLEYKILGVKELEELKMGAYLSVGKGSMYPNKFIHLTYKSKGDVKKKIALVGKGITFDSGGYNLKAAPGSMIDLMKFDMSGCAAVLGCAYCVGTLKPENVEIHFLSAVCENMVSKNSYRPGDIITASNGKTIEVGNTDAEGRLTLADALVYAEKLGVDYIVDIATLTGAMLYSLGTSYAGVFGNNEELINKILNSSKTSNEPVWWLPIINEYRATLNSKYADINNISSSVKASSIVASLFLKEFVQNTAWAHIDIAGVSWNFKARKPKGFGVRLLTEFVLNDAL

## Cc1ccc(Nc2nc(-c3cccnc3)nc3ccccc23)cc1
BJ [1]
  EC50: > 150 µM (inconclusive)
[2]
  EC50: 15.8 µM (active)
BJ [3]
  EC50: 28.5 µM (active)
BJ [4]
  EC50: 20.3 µM (active)

## COc1ccc(NC(=O)Nc2ccc3c(c2)C(=O)N([C@@H](C)CO)C[C@H](C)[C@H](CN(C)S(=O)(=O)c2ccc(OC)cc2)O3)cc1
[5]
  AC50: 4.26 µM (active)
[6]
  AC50: 17.5 µM (active)
[7]
  AC50: 4.38 µM (active)

## CCN1C[C@@]2(COC(=O)c3ccccc3N3C(=O)CC(C)C3=O)CC[C@H](OC)[C@]34C5C[C@H]6[C@@H](OC)C[C@@](O)(C5[C@H]6OC)C(O)(C13)[C@@H](OC)C24 (stereo partly specified)
Cytochrome P450 3A4
  AC50: 20 µM (inconclusive)

## Cc1nc(NC(=O)c2ccccc2)sc1-c1csc(Nc2ccc(F)cc2)n1
Cytochrome P450 2C19
  AC50: 0.355 µM (inconclusive)
Cytochrome P450 1A2
  AC50: 4.47 µM (inconclusive)
Cytochrome P450 2C9
  AC50: inconclusive

## COc1ccc(S(=O)(=O)Nc2ccc3c(c2)CC(=O)N([C@H](C)CO)C[C@@H](C)[C@@H](CN(C)S(=O)(=O)c2cccs2)O3)cc1
[8]
  AC50: 6.01 µM (active)

## COc1ccccc1CCn1cnc(-c2ccccc2F)c1CC(C)C
[9]
  AC50: 27.2 µM (active)
[10]
  AC50: 18.9 µM (active)
[11]
  AC50: 17.5 µM (active)
[12]
  AC50: > 52 µM (inactive)
[13]
  AC50: 27 µM (active)

## CCNc1ncc2nc(-c3ccc(OC)cc3)c(=O)n(Cc3ccc(F)cc3)c2n1
Cytochrome P450 2C9
  AC50: inconclusive

## C[C@@H]1CN([C@@H](C)CO)C(=O)c2cccc(NC(=O)c3ccc(-c4nccs4)cc3)c2O[C@H]1CN(C)Cc1ccc(Oc2ccccc2)cc1
[8]
  AC50: 3.03 µM (active)

## CCOC(=O)c1ccc(NC(=O)CN2C(=O)CSCC2=O)cc1
Leucine aminopeptidase
  IC50: 41.8 µM (active)

## CC1(C)OC2CC3C4CC(F)C5=CC(=O)C=CC5(C)C4C(O)CC3(C)[C@]2(C(=O)CO)O1 (stereo partly specified)
Cytochrome P450 3A4
  AC50: 39.8 µM (inconclusive)

## COC(=O)/C(=C1\OC(=O)C(c2ccccc2)C1=O)c1ccccc1 (stereo unspecified)
Cytochrome P450 3A4
  AC50: 39.8 µM (inconclusive)

## COc1ccc(NC(=O)Nc2ccc3c(c2)CC(=O)N([C@@H](C)CO)C[C@@H](C)[C@@H](CN(C)Cc2ccc(C(F)(F)F)cc2)O3)cc1
[8]
  AC50: 4.62 µM (active)

## N#CCCn1c(=O)c(-c2ccc(Cl)cc2)nc2cnc(Oc3cccc(Cl)c3)nc21
Cytochrome P450 2C9
  AC50: inconclusive

## OC(c1ccccc1)(c1ccccc1)C1CCN(CCCOc2cccc(C(F)(F)F)c2)CC1
[9]
  AC50: 10.9 µM (active)
[10]
  AC50: 19.6 µM (active)
[11]
  AC50: 21.7 µM (active)
[12]
  AC50: 16.9 µM (active)
[13]
  AC50: 9.53 µM (active)

## Cc1ccc(S(=O)(=O)N(C)C[C@H]2Oc3c(NC(=O)Nc4ccc5c(c4)OCO5)cccc3C(=O)N([C@H](C)CO)C[C@@H]2C)cc1
[8]
  AC50: 6.64 µM (active)

## COc1cccc(Cn2c(=O)c(-c3cc(F)cc(F)c3)nc3cnc(N4CCOCC4)nc32)c1
Cytochrome P450 2C9
  AC50: inconclusive
